The source made the active and inactive calls. The calls are words filed in the database; no cut-off is given here.
Columns and labels:
[1] = molecular target: Mitogen-activated protein kinase kinase kinase 9 (Homo sapiens) (UniProt P80192); test: Inhibition of MLK1 assessed as residual activity of enzyme at 25 uM
[2] = molecular target: Serine/threonine-protein kinase mTOR (Homo sapiens) (UniProt P42345); test: Inhibition of mTOR assessed as residual activity of enzyme at 25 uM
[3] = molecular target: Casein kinase I isoform alpha (Homo sapiens) (UniProt P48729); test: Inhibition of CK1 assessed as residual activity of enzyme at 10 uM
Casein kinase I isoform alpha (Homo sapiens), sequence (P48729 2-337 limits assumed): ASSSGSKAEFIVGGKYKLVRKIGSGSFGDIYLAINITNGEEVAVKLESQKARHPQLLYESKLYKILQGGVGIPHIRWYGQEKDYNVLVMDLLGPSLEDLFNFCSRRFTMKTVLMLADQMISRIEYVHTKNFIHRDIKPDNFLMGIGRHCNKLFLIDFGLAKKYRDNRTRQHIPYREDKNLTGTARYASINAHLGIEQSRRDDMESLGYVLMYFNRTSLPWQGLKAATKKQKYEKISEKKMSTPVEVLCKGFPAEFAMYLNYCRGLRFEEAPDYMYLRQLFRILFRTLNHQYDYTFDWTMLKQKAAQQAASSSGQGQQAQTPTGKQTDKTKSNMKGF

[4] = molecular target: Glycogen synthase kinase-3 beta (Homo sapiens) (UniProt P49841); test: Inhibition of GSK3-beta assessed as residual activity of enzyme at 25 uM
Glycogen synthase kinase-3 beta (Homo sapiens), sequence (P49841 whole entry, looked up): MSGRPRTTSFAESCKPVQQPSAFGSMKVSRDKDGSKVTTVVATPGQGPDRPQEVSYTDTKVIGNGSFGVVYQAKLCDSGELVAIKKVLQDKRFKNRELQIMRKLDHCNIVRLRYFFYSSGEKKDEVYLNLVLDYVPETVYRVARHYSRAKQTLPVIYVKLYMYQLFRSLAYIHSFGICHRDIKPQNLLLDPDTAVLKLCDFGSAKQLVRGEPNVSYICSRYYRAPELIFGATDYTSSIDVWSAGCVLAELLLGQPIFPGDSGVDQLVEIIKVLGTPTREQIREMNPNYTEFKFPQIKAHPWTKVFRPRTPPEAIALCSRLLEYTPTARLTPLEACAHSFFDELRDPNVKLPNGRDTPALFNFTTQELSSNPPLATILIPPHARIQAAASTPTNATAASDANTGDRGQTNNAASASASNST

[5] = molecular target: Glycogen synthase kinase-3 beta (Homo sapiens) (UniProt P49841); test: Inhibition of GSK3-beta assessed as residual activity of enzyme at 10 uM
[6] = molecular target: T1, Serine/threonine-protein kinase TAO2 (Homo sapiens) (UniProt Q9UL54); test: Inhibition of TAO2 assessed as residual activity of enzyme at 10 uM
T1 sequence (whole entry): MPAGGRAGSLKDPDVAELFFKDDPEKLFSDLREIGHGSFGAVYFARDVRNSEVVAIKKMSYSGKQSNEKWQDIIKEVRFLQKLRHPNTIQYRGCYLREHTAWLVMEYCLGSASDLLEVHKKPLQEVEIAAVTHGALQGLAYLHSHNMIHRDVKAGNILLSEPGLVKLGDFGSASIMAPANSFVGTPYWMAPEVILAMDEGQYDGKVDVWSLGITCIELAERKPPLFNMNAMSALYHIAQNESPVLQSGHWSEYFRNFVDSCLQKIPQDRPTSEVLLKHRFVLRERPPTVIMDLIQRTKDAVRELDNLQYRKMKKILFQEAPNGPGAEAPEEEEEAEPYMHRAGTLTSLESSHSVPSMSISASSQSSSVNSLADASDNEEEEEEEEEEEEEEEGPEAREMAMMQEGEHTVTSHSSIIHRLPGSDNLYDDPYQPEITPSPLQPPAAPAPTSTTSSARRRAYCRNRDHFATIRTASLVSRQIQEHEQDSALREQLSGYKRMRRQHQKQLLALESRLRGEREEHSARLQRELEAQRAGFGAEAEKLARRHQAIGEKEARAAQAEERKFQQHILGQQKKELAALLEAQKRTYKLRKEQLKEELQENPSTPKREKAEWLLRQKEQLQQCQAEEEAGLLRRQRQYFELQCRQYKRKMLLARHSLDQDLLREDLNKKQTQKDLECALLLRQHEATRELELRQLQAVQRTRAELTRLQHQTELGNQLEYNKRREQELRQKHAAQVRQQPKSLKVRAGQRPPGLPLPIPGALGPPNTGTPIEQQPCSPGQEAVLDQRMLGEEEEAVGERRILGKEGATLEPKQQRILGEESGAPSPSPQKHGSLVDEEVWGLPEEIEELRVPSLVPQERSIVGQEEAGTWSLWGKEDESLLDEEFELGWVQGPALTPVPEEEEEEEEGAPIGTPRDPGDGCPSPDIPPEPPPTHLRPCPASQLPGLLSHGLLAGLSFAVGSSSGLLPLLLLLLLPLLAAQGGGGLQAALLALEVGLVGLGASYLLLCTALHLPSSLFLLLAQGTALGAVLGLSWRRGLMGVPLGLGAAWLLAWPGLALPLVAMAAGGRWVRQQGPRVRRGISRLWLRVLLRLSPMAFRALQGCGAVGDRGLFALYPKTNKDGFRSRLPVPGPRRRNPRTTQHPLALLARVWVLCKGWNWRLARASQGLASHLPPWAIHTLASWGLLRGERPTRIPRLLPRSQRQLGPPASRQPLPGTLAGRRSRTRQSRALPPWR

[7] = molecular target: Mitogen-activated protein kinase kinase kinase 9 (Homo sapiens) (UniProt P80192); test: Inhibition of MLK1 assessed as residual activity of enzyme at 10 uM
[8] = molecular target: T2, Serine/threonine-protein kinase TAO1 (Homo sapiens) (UniProt Q7L7X3); test: Inhibition of TAO1 assessed as residual activity of enzyme at 10 uM
T2 sequence (whole entry): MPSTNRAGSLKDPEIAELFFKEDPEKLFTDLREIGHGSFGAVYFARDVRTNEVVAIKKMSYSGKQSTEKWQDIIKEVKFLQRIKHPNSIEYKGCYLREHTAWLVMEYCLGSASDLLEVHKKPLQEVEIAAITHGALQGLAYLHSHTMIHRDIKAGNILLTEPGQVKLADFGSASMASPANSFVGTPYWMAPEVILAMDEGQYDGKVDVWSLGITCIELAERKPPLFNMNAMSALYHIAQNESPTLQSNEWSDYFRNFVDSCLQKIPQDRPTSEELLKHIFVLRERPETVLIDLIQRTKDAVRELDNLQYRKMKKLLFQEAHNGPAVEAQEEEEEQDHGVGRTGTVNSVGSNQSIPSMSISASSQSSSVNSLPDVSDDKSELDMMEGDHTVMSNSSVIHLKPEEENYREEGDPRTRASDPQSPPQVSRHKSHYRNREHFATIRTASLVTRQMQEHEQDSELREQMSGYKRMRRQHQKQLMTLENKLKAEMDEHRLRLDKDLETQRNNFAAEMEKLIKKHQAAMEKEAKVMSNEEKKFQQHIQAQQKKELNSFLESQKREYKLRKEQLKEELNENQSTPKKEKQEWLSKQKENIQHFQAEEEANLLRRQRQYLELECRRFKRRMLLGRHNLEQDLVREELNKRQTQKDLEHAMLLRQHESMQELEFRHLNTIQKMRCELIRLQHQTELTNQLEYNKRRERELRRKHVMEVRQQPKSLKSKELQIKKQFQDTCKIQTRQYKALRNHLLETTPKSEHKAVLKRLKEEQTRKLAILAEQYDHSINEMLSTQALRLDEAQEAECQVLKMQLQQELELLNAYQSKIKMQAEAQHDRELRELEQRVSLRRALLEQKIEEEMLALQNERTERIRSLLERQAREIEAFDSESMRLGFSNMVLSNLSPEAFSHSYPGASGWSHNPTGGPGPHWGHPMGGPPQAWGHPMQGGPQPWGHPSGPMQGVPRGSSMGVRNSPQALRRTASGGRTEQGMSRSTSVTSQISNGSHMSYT

[9] = test system: Leucine-rich repeat serine/threonine-protein kinase 2 (Homo sapiens), Q5S007 [G2019S]; test: Inhibition of purified N-terminal GST-tagged LRRK2 G2019S mutant autophosphorylation activity using myelin basic protein as substrate at 25 uM
Leucine-rich repeat serine/threonine-protein kinase 2 (Homo sapiens), Q5S007 [G2019S], sequence (Q5S007 whole entry G2019S): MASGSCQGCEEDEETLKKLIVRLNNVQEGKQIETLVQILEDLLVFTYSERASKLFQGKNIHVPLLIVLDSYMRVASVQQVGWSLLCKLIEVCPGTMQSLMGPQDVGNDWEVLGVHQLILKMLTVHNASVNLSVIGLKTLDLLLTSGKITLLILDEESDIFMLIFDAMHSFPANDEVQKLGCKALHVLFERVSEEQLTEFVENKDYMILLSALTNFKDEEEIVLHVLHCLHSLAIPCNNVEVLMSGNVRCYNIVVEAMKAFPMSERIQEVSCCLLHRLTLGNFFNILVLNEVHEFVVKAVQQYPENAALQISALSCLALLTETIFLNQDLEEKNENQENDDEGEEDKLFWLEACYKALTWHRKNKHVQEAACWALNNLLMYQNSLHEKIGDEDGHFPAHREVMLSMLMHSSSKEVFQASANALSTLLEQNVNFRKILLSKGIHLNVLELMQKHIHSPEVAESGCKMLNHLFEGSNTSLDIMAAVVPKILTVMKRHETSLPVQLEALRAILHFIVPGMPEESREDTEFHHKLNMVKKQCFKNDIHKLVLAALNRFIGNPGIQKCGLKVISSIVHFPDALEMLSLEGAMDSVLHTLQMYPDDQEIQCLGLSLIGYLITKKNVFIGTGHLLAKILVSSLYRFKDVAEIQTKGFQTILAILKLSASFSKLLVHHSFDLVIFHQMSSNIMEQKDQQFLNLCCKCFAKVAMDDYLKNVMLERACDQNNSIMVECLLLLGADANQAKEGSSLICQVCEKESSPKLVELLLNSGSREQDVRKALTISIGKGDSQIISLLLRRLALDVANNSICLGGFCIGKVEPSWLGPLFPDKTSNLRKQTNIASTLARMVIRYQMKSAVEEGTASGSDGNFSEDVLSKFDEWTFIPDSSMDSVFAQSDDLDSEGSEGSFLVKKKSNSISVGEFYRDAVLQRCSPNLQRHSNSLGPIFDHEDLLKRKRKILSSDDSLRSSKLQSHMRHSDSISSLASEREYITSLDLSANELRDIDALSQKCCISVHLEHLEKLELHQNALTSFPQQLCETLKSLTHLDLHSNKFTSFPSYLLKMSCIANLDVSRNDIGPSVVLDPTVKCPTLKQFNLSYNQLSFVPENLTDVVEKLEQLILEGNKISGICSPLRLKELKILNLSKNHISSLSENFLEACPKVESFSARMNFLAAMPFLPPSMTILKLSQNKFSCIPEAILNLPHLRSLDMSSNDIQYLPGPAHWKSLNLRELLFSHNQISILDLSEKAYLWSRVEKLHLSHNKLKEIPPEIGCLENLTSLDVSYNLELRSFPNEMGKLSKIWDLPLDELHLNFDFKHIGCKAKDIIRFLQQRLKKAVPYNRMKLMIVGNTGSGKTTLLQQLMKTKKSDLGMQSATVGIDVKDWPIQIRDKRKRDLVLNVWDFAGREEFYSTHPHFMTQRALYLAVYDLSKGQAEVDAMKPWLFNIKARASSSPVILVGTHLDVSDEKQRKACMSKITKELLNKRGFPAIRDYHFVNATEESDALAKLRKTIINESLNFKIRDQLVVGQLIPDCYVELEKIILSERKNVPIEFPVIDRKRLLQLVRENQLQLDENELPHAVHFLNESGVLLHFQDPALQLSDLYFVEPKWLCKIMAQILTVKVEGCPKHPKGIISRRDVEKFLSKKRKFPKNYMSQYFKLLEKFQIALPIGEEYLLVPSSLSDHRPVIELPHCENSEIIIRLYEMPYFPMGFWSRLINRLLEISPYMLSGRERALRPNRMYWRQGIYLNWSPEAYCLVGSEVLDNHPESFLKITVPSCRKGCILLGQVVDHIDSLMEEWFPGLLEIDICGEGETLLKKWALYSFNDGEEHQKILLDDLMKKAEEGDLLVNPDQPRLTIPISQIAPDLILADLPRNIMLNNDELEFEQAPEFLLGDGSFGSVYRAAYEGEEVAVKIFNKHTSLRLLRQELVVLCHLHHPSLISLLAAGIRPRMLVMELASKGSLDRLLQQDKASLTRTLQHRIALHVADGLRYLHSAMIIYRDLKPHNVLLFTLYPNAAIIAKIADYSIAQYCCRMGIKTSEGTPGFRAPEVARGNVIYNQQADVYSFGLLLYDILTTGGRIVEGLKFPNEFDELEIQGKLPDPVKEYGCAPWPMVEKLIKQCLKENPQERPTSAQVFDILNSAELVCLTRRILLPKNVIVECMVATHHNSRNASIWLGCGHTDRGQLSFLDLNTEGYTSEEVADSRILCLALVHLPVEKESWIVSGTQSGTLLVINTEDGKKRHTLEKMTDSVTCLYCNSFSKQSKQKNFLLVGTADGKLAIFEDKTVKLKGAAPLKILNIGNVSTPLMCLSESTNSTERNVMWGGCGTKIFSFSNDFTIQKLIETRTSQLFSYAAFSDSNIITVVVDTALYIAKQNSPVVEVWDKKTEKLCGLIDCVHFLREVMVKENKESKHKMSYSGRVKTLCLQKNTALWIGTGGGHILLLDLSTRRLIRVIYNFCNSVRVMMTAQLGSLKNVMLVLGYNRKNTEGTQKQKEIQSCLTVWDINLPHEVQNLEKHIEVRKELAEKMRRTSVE

[10] = molecular target: T1, Serine/threonine-protein kinase TAO2 (Homo sapiens); test: Inhibition of TAO2 assessed as residual activity of enzyme at 25 uM
[11] = molecular target: RAF proto-oncogene serine/threonine-protein kinase (Homo sapiens) (UniProt P04049); test: Inhibition of c-Raf assessed as residual activity of enzyme at 10 uM
RAF proto-oncogene serine/threonine-protein kinase (Homo sapiens), sequence (P04049 whole entry, canonical isoform): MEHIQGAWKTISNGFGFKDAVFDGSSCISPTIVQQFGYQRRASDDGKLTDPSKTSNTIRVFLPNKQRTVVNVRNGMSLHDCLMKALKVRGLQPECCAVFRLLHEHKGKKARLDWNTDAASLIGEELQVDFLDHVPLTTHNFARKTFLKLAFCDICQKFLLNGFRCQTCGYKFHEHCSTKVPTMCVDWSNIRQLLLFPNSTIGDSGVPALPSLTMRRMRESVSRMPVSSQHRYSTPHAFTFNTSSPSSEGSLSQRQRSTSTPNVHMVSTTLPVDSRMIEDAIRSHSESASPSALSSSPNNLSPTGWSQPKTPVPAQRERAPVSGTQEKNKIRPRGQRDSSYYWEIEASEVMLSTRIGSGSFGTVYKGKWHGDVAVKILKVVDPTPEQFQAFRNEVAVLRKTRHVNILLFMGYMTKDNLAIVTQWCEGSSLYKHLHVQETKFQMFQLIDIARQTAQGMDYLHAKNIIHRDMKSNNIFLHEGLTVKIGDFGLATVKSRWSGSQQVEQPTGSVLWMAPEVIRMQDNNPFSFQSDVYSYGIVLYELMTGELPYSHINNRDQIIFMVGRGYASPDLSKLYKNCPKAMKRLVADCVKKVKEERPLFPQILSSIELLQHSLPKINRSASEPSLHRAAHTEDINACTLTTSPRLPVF

[12] = molecular target: Casein kinase I isoform alpha (Homo sapiens) (UniProt P48729); test: Inhibition of CK1 assessed as residual activity of enzyme at 25 uM

Mitogen-activated protein kinase kinase kinase 9 (Homo sapiens), sequence (P80192 whole entry, looked up): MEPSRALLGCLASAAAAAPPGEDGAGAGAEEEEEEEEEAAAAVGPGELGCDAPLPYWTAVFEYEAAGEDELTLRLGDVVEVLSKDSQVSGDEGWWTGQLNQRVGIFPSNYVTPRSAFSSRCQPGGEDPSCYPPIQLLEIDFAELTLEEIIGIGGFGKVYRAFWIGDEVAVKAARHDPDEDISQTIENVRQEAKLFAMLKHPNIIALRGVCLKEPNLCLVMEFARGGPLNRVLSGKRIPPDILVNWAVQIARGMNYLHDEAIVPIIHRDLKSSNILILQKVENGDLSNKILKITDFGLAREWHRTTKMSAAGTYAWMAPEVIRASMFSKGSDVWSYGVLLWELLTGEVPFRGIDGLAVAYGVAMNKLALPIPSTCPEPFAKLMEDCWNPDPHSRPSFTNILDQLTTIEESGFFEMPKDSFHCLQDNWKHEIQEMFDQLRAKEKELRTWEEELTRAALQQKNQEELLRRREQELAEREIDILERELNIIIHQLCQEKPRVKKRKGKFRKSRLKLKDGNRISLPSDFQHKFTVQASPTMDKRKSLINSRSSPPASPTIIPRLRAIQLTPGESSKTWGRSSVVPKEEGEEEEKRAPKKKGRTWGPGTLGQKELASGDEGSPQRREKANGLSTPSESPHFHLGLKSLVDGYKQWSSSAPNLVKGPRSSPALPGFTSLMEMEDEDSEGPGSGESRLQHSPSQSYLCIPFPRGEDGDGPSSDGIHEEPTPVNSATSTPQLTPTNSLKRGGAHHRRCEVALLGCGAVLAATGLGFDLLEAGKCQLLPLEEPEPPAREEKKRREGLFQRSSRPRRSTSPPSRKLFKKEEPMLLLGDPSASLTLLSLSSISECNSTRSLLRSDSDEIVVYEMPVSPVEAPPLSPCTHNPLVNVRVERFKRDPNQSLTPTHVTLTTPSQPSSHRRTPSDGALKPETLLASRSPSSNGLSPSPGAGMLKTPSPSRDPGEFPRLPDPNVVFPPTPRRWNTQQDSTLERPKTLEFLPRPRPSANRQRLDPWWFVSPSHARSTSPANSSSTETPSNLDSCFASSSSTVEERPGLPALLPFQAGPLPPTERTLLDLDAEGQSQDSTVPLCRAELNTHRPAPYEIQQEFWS

Activity [1]: 12%
Activity [2]: 99%
Activity [3]: 77%
Activity [4]: 94%
Activity [5]: 99%
Activity [6]: 89%
Activity [7]: 20%
Activity [8]: 88%
inhibition [9]: Active
Activity [10]: 84%
Activity [11]: 92%
Activity [12]: 59%
SMILES: Cc1cc(N/N=C/c2ccncc2)nc2ccccc12
